Experiments:
Neutrophils (LPS) = experiment: High-dimensional phosphorylation analysis, Neutrophils (LPS); assay type: cell-based, human; conditions: 30 µM, 15'
Protocol: (§1) The analysis measured 94 intracellular signaling nodes (81 phosphorylation sites, 10 total protein levels and 3 methylation/acetylation sites) in stimulated immune cells, including B cells (IgM plus CD40L), CD4 + and CD8 + T cells (IL-2; CD3 plus CD28), monocytes (M-CSF), NK cells (IL-2), and granulocytes (LPS).

TEC = target: T1, TEC (Homo sapiens, UniProt P42680); experiment: Kinase biochemical assay (FRET), TEC; conditions: read-out: inhibitory activity on TEC
T1 sequence (P42680 1-631): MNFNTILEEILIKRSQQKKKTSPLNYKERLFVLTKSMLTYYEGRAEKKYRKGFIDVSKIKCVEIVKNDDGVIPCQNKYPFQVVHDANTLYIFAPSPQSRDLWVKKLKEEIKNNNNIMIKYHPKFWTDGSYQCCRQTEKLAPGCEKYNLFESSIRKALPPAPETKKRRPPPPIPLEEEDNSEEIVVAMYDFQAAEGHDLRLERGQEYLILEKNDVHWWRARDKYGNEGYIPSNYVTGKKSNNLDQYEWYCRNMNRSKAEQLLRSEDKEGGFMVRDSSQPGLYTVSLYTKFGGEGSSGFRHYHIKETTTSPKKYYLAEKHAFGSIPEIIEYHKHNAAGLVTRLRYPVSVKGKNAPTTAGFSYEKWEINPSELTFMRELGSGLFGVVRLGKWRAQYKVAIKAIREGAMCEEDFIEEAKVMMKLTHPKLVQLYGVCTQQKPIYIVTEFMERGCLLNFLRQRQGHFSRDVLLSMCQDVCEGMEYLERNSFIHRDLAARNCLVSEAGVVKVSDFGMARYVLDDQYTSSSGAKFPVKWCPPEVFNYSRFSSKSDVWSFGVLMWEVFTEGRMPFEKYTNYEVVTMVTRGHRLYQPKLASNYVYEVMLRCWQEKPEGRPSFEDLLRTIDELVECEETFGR

BTK [1] = target: T2, BTK (Rattus norvegicus, UniProt Q5S255); experiment: BTK occupancy and BTK phosphorylation in CIA model rats (PD); assay type: in vivo; conditions: for correlation coefficient, arthritis score vs BTK occupancy: negative correlation; for correlation coefficient, clinical arthritis score vs BTK phosphorylation: positive correlation
T2 construct: endogenous in cells; host or cells: rat PBMCs (normal rats in vitro; CIA model rats ex vivo)
T2 sequence (Q5S255 1-660): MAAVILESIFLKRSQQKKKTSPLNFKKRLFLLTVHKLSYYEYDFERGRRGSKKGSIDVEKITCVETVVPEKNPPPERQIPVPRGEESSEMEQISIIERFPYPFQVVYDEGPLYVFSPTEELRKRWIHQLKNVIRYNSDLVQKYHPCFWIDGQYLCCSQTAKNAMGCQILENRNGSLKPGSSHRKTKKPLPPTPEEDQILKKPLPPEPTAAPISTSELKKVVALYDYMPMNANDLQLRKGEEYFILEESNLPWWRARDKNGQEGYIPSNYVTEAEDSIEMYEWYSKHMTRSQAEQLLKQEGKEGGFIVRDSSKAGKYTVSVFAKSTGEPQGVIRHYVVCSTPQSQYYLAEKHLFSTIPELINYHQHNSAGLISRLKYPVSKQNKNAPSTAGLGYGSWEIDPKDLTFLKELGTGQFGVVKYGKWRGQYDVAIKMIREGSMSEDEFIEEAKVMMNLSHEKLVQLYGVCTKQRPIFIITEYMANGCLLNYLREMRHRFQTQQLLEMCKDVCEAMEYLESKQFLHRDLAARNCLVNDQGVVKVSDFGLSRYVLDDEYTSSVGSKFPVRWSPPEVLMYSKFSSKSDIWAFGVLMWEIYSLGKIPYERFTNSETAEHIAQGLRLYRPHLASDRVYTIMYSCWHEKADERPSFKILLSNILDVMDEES
Protocol: (§2) The BTK occupancy assay and analysis of BTK phosphorylation inhibition were performed as described previously. Briefly, isolated PBMCs were lysed with RIPA buffer (R0278, Sigma-Aldrich) containing 1 × protease/phosphatase inhibitor (1861281, Thermo Fisher Scientific) and EDTA (1861274, Thermo Fisher Scientific). The supernatants were collected by 10 min at 14,000 × g in microcentrifuge at 4 °C and biotinylated probe was added to bind free BTK for 1 h. Rabbit anti-BTK Ab (1:5000 in 1% BSA) bound the captured BTK/probe complex, and was detected with […] antibody conjugated with HRP then ultra-TMB solution was added to each well for the free BTK analysis. Analysis of free and total BTK levels for the phase I study was conducted by Cambridge Biomedical Inc. (MA, USA). BTK occupancy was calculated by taking the free BTK and total BTK results from a given donor and used the following formula: %BTKoccupancy=100%-FreeBTK/totalBTK×100.
For analysis of BTK phosphorylation inhibition, the relative percentage of phosphorylated BTK was calculated by the following equation: phospho-BTK level / total BTK level × 100. The results are presented as the mean percentage ± S.D.
Figure 5 Pharmacologic inhibition of BTK and its correlation with efficacy. (A,B) Whole blood was collected from the CIA-induced rats at the 0, 4, 12, 24 h after final drug administration, and then PBMCs and plasma were isolated. BTK phosphorylation was detected by immunoblotting and normalized to the total BTK level, and BTK occupancy was measured by ELISA using a biotinylated probe as described in the Materials and Methods. […] Full-length blots are presented in Supplementary Fig. 1. (C) Correlations between drug efficacy (clinical arthritis score) and the PD markers BTK phosphorylation percentage (left)/drug efficacy and BTK occupancy percentage (right). Linear regression was performed by using GraphPad Prism 6. The data are presented as the mean ± S.D.

BTK [2] = target: T2, BTK; experiment: BTK occupancy molecular probe assay in rat PBMCs; assay type: cell-based; conditions: 1 h treatment, biotinylated probe; read-out: IC50, BTK target modulation (occupancy) in rat PBMCs
Protocol: as §2
BTK occupancy (%) was calculated from the free BTK percentage, which was compared with that of the untreated control group. […] Bone erosion ( →) was quantified a subchondral and bone destruction and synovitis (*) was scored degree of pannus formation, including synovial inflammation, hypertrophy, interstitial edema, and fibrosis (H&E). Cartilage damage (□) was semiquantitatively scored as an intensity of Safranin-O staining (red). […]

B cells (IgM+CD40L) = experiment: High-dimensional phosphorylation analysis, B cells (IgM+CD40L); assay type: cell-based, human
Protocol: as §1

[3] = 30 μM, all time points (2, 5, 15, 60 min)

## C=CC(=O)Nc1cccc(Oc2nc(Nc3ccc(N4CCN(C)CC4)cc3)nc3ccoc23)c1 [Poseltinib]
Neutrophils (LPS)
  4ebp1 phosphorylation, Log2Ratio Stim/Control: 0.28
  AKT1 phosphorylation, Log2Ratio Stim/Control: 0.66
  AMPK phosphorylation, Log2Ratio Stim/Control: 0.29
  Akt phosphorylation, Log2Ratio Stim/Control: 0.66
  BTK phosphorylation, Log2Ratio Stim/Control: -0.25
  HSP27 phosphorylation, Log2Ratio Stim/Control: 0.34
  MAP2K1 phosphorylation, Log2Ratio Stim/Control: 2.38
  MNK phosphorylation, Log2Ratio Stim/Control: 0.40
  RPS6 phosphorylation, Log2Ratio Stim/Control: 0.66
TEC
  IC50: < 0.01 µM
BTK [1]; 3 mg/kg, 4 h after the last administration
  BTK occupancy: full BTK occupancy
BTK [1]; 3 mg/kg, at 12 and 24 h
  BTK occupancy: completely occupied
BTK [1]; 0.3 and 1 mg/kg, 4 h after the last administration
  BTK occupancy: partial BTK occupancy
BTK [1]; 0.3 and 1 mg/kg, at 12 and 24 h
  BTK phosphorylation: partially inhibited
BTK [1]; 4 h
  correlation coefficient, arthritis score vs BTK occupancy: 0.8003
  correlation coefficient, clinical arthritis score vs BTK phosphorylation: 0.6750
BTK [1]; 12 h
  correlation coefficient, arthritis score vs BTK occupancy: 0.8757
  correlation coefficient, clinical arthritis score vs BTK phosphorylation: 0.7795
BTK [1]; 24 h
  correlation coefficient, arthritis score vs BTK occupancy: 0.8528
  correlation coefficient, clinical arthritis score vs BTK phosphorylation: 0.8603
BTK [2]
  IC50: 0.0146 ± 0.0033 µM
B cells (IgM+CD40L); 30 µM, 5'
  Akt phosphorylation, Log2Ratio Stim/Control: -0.97
  BTK phosphorylation, Log2Ratio Stim/Control: 0.06
  CREB1 phosphorylation, Log2Ratio Stim/Control: 1.74
  MAPK3 phosphorylation, Log2Ratio Stim/Control: 1.30
  PLCγ2 phosphorylation, Log2Ratio Stim/Control: 0.82
  RPS6KA1 phosphorylation, Log2Ratio Stim/Control: 1.13
  RPS6 phosphorylation, Log2Ratio Stim/Control: 1.35
  SAPK/JNK phosphorylation, Log2Ratio Stim/Control: 0.82
  SLP76 phosphorylation, Log2Ratio Stim/Control: 0.86
  WIPF1 phosphorylation, Log2Ratio Stim/Control: 1.81
B cells (IgM+CD40L); [3]
  phosphorylation of AKT (S473): inhibited
  phosphorylation of BTK (Y223): inhibited
  phosphorylation of PLCγ2 (Y759): inhibited

Reference: article PMC8455565 (Scientific Reports, 2021)
